Data on 111 molecules can be found in a melting point compilation (Tetko et al.).

For orientation: melting point means the temperature of the solid-liquid transition.

In turn, `O=C1C(=Cc2ccc(N(CCCl)CCCl)cc2)SC(=S)N1CN1CCOCC1` showed a melting point of 164 °C. As for `CC1=CCC(=C(C)C)CC1`, the figure is under 25 °C; as for `Cn1c(-c2ccccc2)cc2ccccc21`, 99 °C. Under `CCC(C)CCCCO` (stereo unspecified) stands -104 °C; under `Cc1cccc2c1ccc1ccccc12`, 123 °C; under `COc1cc(O)c2c(=O)c(O[C@@H]3O[C@H](CO)[C@H](O)[C@H](O)[C@@H]3O[C@@H]3O[C@H](C)[C@H](O)[C@H](O)[C@@H]3O)c(-c3cccc(O)c3)oc2c1`, 182 to 188 °C.

Consider `CC(C)(C)OC(=O)N1CCNCC1`, for which the melting point lay within 47 to 49 °C. On to `CCC(C)c1ccccc1` (stereo unspecified), for which the melting point was -75 °C. The molecule `CCSc1nnn[nH]1` registered a melting point of 88 to 89 °C. As for `CC(O[S+]([O-])C(C)(C)C)C(O)(c1ccccc1)c1ccccc1` (stereo unspecified), the figure is 135 to 137 °C; as for `CN(C)c1ccc2c(C(F)(F)F)cc(=O)oc2c1`, 147 to 149 °C; as for `CC(C)(C)OC(=O)NCCC(N)=S`, 109 to 112 °C. On to `O=C1C(=CC2C(=O)N(c3ccccc3)N=C2c2ccc([N+](=O)[O-])cc2)C(c2ccc([N+](=O)[O-])cc2)=NN1c1ccccc1` (stereo unspecified), for which the melting point fell in the range of 283 to 284 °C. As for `CCOC(=O)C=C1SC(N2CCCCC2)C(=O)N1CC` (stereo unspecified), the figure is 86 °C.

`Oc1c(Br)cc(F)cc1Br` registered a melting point of 55 °C. Under `Cc1cccnc1NC(=O)C(F)(F)C(F)(F)C(F)(F)C(F)(F)C(F)(F)C(F)(F)C(F)(F)C(F)(F)F` stands 161 °C. The molecule `CNC(=O)Oc1ccc(SC)c(C)c1` registered a melting point of 118 °C.

`CSc1nc(N)nc(-c2cc(Cl)cc(Cl)c2)n1` had a melting point of 214 to 216 °C. In turn, `CC(=O)N(C)c1cccc(-c2ccc3nnc(C)n3n2)c1` displayed a melting point of 200 to 201 °C.

As to `Cc1c(O)c(Br)c(Br)c(Br)c1Br`, the melting point lay within 209 to 213 °C. `COc1c(C(=O)Cl)csc1Br` came in with a melting point of 79 to 82 °C.

Consider `Cc1ccc(C(c2ccc(C)o2)c2cc(Br)cc([N+](=O)[O-])c2O)o1`, for which the melting point came out at 100 °C. On to `COCc1cc(=O)oc2cc(N)ccc12`, for which the melting point came to 184 °C. As for `Clc1ccc(CSSCc2ccc(Cl)cc2)cc1`, the figure is 59 to 61 °C; as for `O=C(O)CC1NC(=O)NC1=O` (stereo unspecified), 213 to 216 °C. Under `Cc1ccc2ccc(=O)oc2c1` stands 128 °C; under `CC1(C)OC2CC(=O)OCC23C1CC(=O)C1(C)C3CCC2(C)C(c3ccoc3)OC(=O)C3OC321` (stereo unspecified), 298 °C.

In turn, `Cc1ccc(C#N)cc1F` had a melting point of 47 °C.

For the molecule `FC(F)C(F)(F)F`, the melting point was -103 °C. Under `COc1c(Br)c(C)c(Br)c(Br)c1OC` stands 90 °C. Under `CCOC(=O)CC(=O)c1ccncc1` stands 53 to 59 °C. On to `CCOC(=O)C(C#N)c1ccccc1[N+](=O)[O-]` (stereo unspecified), for which the melting point was found to be 60 °C.

Molecule `O=S(=O)(Cl)c1ccc(F)cc1` returned a melting point of 36.5 °C. On to `COc1ccc2c(c1)CC1(CCC(=O)CC1)C2=O`, for which the melting point is 93 °C. Molecule `C1CCCSCC1` came in with a melting point of 0.5 °C. Under `CC12CCC(O)CC1CCC1C2C(=O)CC2(C)C1CCC2(O)C(=O)CO` (stereo unspecified) stands 213 °C; under `C[Si](C)(C)CCS(=O)(=O)c1ccccc1`, 50 to 53 °C; under `Cc1onc(-c2ccccc2)c1N=C=O`, 39 to 40 °C. As for `CCCCCCC(=O)OC(=O)CCCCCC`, the figure is -12 °C; as for `C=C1C(=O)C23C(OC)CC4C5(C)CCCC4(COC5=O)C2C(OC(C)=O)CC1C3O` (stereo unspecified), 126 to 127 °C; as for `Cc1ccc(/C=N/c2nc(C(F)(F)F)n[nH]2)cc1`, 207 to 209 °C. Under `CCCCn1c2ccccc2c2ccccc21` stands 58 °C; under `N#Cc1cccc(F)n1`, 34 °C; under `O=c1occo1`, 19 to 22 °C. In turn, `c1ccc2c(c1)ccc1[nH]c3ccc4ccccc4c3c12` displayed a melting point of 158 °C. As for `CC(=O)OC1(C(C)=O)CCC2(C)C(CCC3C4CCCC4(C)CCC32)C1` (stereo unspecified), the figure is 164 to 166 °C. Under `Cc1cc(C)c(NC(=O)C(C(F)(F)F)C(F)(F)F)c(C)c1` stands 189 °C. As for `N#CCN=C(c1ccccc1)c1ccccc1`, the figure is 83 to 86 °C; as for `O=C(O)C1C(C(=O)O)C2(Cl)C(Cl)=C(Cl)C1(Cl)C2(Cl)Cl` (stereo unspecified), 209 °C. For the molecule `Cc1ccc(N)cc1O`, the melting point lay in the range of 160 to 165 °C. Under `Cn1c(=O)c(C2=NNC(=O)C2=NNc2cccc(Cl)c2)c(O)c2ccccc21` stands 222 °C; under `O=C(O)C(O)c1ccc(F)cc1F` (stereo unspecified), 123 °C; under `CC(C)(C)C(=O)OCOC(=O)C1N2C(=O)C(N=CN3CCCCCC3)C2SC1(C)C` (stereo unspecified), 119 °C. Under `COc1cc(C)c2c(c1)CC2=O` stands 83 °C; under `CNC(=S)NCO`, 88 °C; under `O=C1c2ccccc2C(=O)N1O`, 233 to 235 °C. In turn, `O=C=Nc1cc(F)cc2c1OCOC2` registered a melting point of 85 to 86 °C. Under `Cc1cccc(C(=O)CC#N)c1` stands 73 to 75 °C; under `CCCCCCCCCCCCCCCCCCCCCCC(=O)O`, 79 to 80 °C.

In turn, `O=C(OCC(O)CO)c1ccccc1Nc1ccnc2c(C(F)(F)F)cccc12` (stereo unspecified) yielded a melting point of 180 °C.

Take `Cc1ccc(C(=O)O)cc1C(F)(F)F`: the melting point is 177 °C. Under `O=Cc1ccc(-c2ccc(-c3cccs3)s2)s1` stands 133 to 135 °C; under `Oc1nc(C2CCCCC2)nn1-c1ccccc1`, 197 °C. For the molecule `Nc1ccc(Nc2ccccc2)c2c1C(=O)c1ccccc1C2=O`, the melting point came to 192 °C.

`CCOC(=O)c1cn[nH]c1`: the melting point is 77 °C. As for `CC(C)(C)OC(=O)N1CCC(Oc2ccccc2N)CC1`, the figure is 71 to 78 °C.

As for `Cc1nn(-c2ccccc2)nc1C(=O)NO`, the melting point came out at 160 °C. As for `O=C(C1CCCCC1)N1CC(=O)N2CCc3ccccc3C2C1` (stereo unspecified), the figure is 136 °C; as for `CC(=Nn1c(S)nnc1C(F)(F)F)c1ccc(C)cc1`, 201 °C; as for `CN1CCN(C2=Nc3ccccc3Sc3ccc(Cl)cc32)CC1`, 119 °C. `CCCCCCCC(O)CC` (stereo unspecified): the melting point is -5 °C.

`O=C(C=Cc1ccc(OCCCl)cc1)c1ccc(OCCCl)cc1` returned a melting point of 83 °C.

Turning to `CCOC(=O)/C(=N\Nc1ccc([N+](=O)[O-])cc1)C(=O)C(F)(F)F`, the melting point amounted to 184 °C. As for `Cc1nc([N+](=O)[O-])cn1C(C)C`, the figure is 86 °C.

With `Cc1ccccc1NC(=O)c1ccccc1`, the melting point worked out at 146 °C. As to `O=C(O)CCCCC1CCSS1` (stereo unspecified), the melting point came out at 60.5 °C. Under `NC(=S)Nc1ccc(O)cc1` stands 214 °C; under `Oc1ccc(O)c(Cc2ccccc2)c1`, 106 °C; under `CC(C)(C)OC(=O)N[C@@H](Cc1c[nH]c2ccccc12)C(=O)O`, 134 to 139 °C. Under `CCOC(=O)C=Cc1ccc(N=[N+]([O-])c2ccc(C=CC(=O)OCC)cc2)cc1` stands 141 °C; under `O=[N+]([O-])c1cccnc1N1CCN(CCO)CC1`, 82 to 83 °C; under `O=C1CSc2cc(Cl)ccc2N1`, 214 °C. As for `Cc1ccc(Cl)c(Cl)c1Cl`, the figure is 43.5 °C; as for `CSc1nc2ccccc2c(=O)n1-c1ccccc1`, 123 to 125 °C. The molecule `O=C(COc1ccccc1)c1ccc(O)cc1O` registered a melting point of 207 to 208 °C. As for `Cn1ccc2c(C=O)cccc21`, the figure is 27 to 29 °C; as for `C=C(C)C(=O)OCCCCCCCCCCCC`, -7 °C. Under `CC(F)(F)C(=O)O` stands 43 °C. Under `CCOP(=S)(OCC)Oc1ccc(=O)n(-c2ccccc2)n1` stands 56.2 °C. Regarding `O=C(O)C=Cc1cccc(C(Br)=C(Br)C(=O)O)c1`, the melting point worked out at 214 °C. Under `CC(C)(CCl)C(=O)O` stands 41.5 °C; under `N=C1N=C2CCC(c3ccccc3)=NN2CN1`, 240 to 242 °C. Under `BrCc1nc2ccccc2nc1CBr` stands 150 to 154 °C. Take `N#CC(O)c1ccccc1` (stereo unspecified): the melting point was -10 °C. Under `CC(C)N(C(=O)C(C(F)(F)F)C(F)(F)F)C(C)C` stands 53 °C; under `COC(=O)CC1Sc2ccccc2NC1=O` (stereo unspecified), 143 °C.

`C1CCC(P(C2CCCCC2)C2CCCCC2)CC1`: the melting point lay within 77 to 83 °C. Under `O=C(O)CCN1CCNCC1` stands 71 to 86 °C. As for `CCOCCOCCOCCO`, the figure is -18.7 °C; as for `Cn1c(=O)c2[nH]c(=O)[nH]c2n(C)c1=O`, 412 to 415 °C. Under `O=c1c2ccccc2[nH]c(=S)n1-c1ccccc1` stands 309 to 311 °C; under `Cc1nc(-c2cccc(N)c2)cs1`, 101 to 103 °C; under `COC(=O)c1cccc2c1-c1ccccc1C2=O`, 135 to 136 °C. On to `Ic1cc(I)c(I)cc1I`, for which the melting point is 254 °C.

`O=C(C=Cc1ccc(F)cc1)c1ccc(F)cc1` yielded a melting point of 113 to 118 °C.

In turn, `COc1ccc2c3c1OC1C(O)CCC4C(C2)N(C)CCC341` (stereo unspecified) gave a melting point of 200 °C.

The molecule `COC(=O)C=CC(C)=CC=CC(C)=CC=CC=C(C)C=CC=C(C)C=CC(=O)O` returned a melting point of 198 °C. With `N#CC1=C(N)n2nc(C(F)(F)F)nc2NC1c1ccc(Cl)cc1Cl` (stereo unspecified), the melting point was 305 to 307 °C. `NC(=S)Nc1ccc2c(c1)OCO2` gave a melting point of 198 to 200 °C.

`C=C(NC(C)=O)C(=O)CCC(N)=O` showed a melting point of 130 °C. Under `Oc1ccc(Cl)c(C(F)(F)F)c1` stands 44 °C.
